Results published in patent US20180360799A1, “Nitrofuran Derivatives That Induce Apoptosis in Breast Cancer Cells by Activating Protein Expression” (Oklahoma Medical Research Foundation, priority 2015, published 2018).
pIC50: −log10 of the molar value.

What was measured:
HCC-38 cells = assay: Cell viability, CellTiter-Glo, HCC-38; type: cell-based; settings: Homo sapiens, HCC38, 72 h; Table 2; cancer cell viability, 3 d treatment; read-out: HCC-38 IC50
Experimental: Given the known functions of CHOP in ER stress-induced apoptosis^16, 17 and in regulating cancer cell death,^6, 19, 20 the inventor investigated whether compound 1 affects the viability of TNBC cells. Three human TNBC cell lines, HCC-1806, HCC-1143, and HCC-38, were treated with doses of 1 ranging from 0.125 μM to 20 μM and their viability was assessed using the CellTiter-Glo assay, which measures intracellular ATP levels.
HCC-1806, HCC-1143, or HCC-38 cells were seeded at 3×10^3 cells/well in a 384-well plate and treated with compounds at the indicated concentrations. After 3 d treatment, the medium was aspirated and 20 μL/well of CellTiter-Glo reagent was added. Cell viability was measured with an EnVision multilabel plate reader. The IC50 value for cell viability of each compound was calculated with GraphPad Prism (La Jolla, Calif., US).

CHOP protein = CHOP protein by Western blotting in HCC-1806 cells; type: cell-based, human; settings: 10 μM, significant increases between 4 h and 24 h
Experimental: FIG. 3B is an image showing CHOP […] expression levels after treatment with a 5-nitrofuran-2-amide derivative. Cells were treated with compound 3d (10 μM) for the indicated times, and CHOP protein levels were analyzed by Western blotting. α-Tubulin was used as a loading control. The data shown are representative of 3 independent studies.
HCC-1806 cells were seeded in 60-mm dishes at 8×10^5 cells/dish and treated for the indicated times. Cells were then washed with PBS and lysed with lysis buffer (Cell Signaling Technology, Danvers, Mass., US) containing EDTA and phosphatase inhibitors. Aliquots of 20 μg total protein were separated on 7% SDS-PAGE gels (Life Technologies, Carlsbad, Calif., US) and transferred to PVDF membranes. The membranes were probed with primary antibodies followed by the appropriate HRP-conjugated secondary antibodies (goat anti-rabbit IgG and goat anti-mouse IgG, 1:3000; Santa Cruz Biotechnology, Santa Cruz, Calif., US). Blots were then developed. The primary antibodies and dilutions used were: CHOP (1:1000 no. MA1-250; Thermo, IL, US), cleaved caspase 3 (1:1000 no. 9661; Cell Signaling Technology), ATF4 (1:1000 no. 10835-1-AP; ProteinTech Group, IL, US), p-eIF2α (Ser51) (1:1000 no. 9721; Cell Signaling Technology), and α-tubulin (1:2000 no. SC-8035; Santa Cruz Biotechnology).

HCC-1806 cells = assay: Viability of siRNA-transfected HCC-1806 cells, CellTiter-Glo; type: cell-based, human; settings: 48 h
Experimental: FIG. 3H is a graph showing cell viability of HCC-1806 cells transfected with a control or CHOP siRNA after treatment with a 5-nitrofuran-2-amide derivative or DMSO. Control or CHOP siRNA (20 nM) was transfected into HCC-1806 cells, and 6 h later, cells were treated with compound 3d (5 μM) or DMSO for 48 h. Cell viability was measured using the CellTiter-Glo assay. The data shown are representative of 3 independent studies. *P<0.05 by Student's t-test compared with DMSO-treated cells.
To confirm that CHOP induction plays a role in compound 3d-mediated TNBC cell death, the inventor asked whether siRNA-mediated knockdown of CHOP mitigated compound 3d-induced cell death. For this, HCC-1806 cells were transfected with different concentrations of CHOP siRNA, and knockdown efficiency was assessed by RT-PCR.
HCC-1806 cells incubated with serum-free RPMI 1640 medium (Corning) were transfected with scrambled control or CHOP siRNA (E-004819-00; Dharmacon/Thermo Scientific, IL, US) using LipofectAMINE reagent (Invitrogen). After 6 h, the medium was replaced with RPMI 1640 medium supplemented with 10% FBS and compound 3d was added. After 48 h, the medium was aspirated and 60 μL/well of CellTiter-Glo reagent was added in 96-w format. Cell viability was measured with an EnVision multilabel plate reader.

CHOP gene = assay: CHOP mRNA by qRT-PCR in HCC-1806 cells; type: cell-based, human
Experimental: The results are the means of 4 replicate wells and are representative of 3 independent studies. *P<0.05 and **P<0.01 by Student's t-test compared with cells treated with DMSO (in FIG. 3A) or with 3d for 0 h (in FIG. 3B). […] The results are the means of 4 replicate wells and are representative of 3 independent studies. *P<0.05 and **P<0.01 by Student's t-test compared with cells treated with compound 3d for 0 h. […] Total RNA was extracted using TRIzol reagent (Invitrogen, Carlsbad, Calif.) according to the manufacturer's protocol, and 2 μg of total RNA was reverse transcribed using a Superscript kit (Invitrogen). Real-time PCR was performed in 96-well format using SYBR Select Master Mix (Applied Biosystems, Foster City, Calif.) with an ABI 7500 PCR system (Applied Biosystems). The primer sequences used were: Human CHOP: SEQ ID NO: 1 [NT] and SEQ ID NO: 2 [NT]. Human ATF4: SEQ ID NO: 3 [NT] and SEQ ID NO: 4 [NT]. Human XBP1: SEQ ID NO: 5 [NT] and SEQ ID NO: 6 [NT]. Human Cyclophilin A: SEQ ID NO: 7 [NT] and SEQ ID NO: 8 [NT]. Human GAPDH: SEQ ID NO: 9 [NT] and SEQ ID NO: 10 [NT].

**Q.** With `CC1CCN(c2ccc(NC(=O)c3ccc([N+](=O)[O-])o3)cc2)CC1` [Compound 3d] as the compound, how does the pIC50 (HCC-38 cells) read?
**A.** 5.60

**Q.** And the CHOP protein levels (CHOP protein)?
**A.** increased CHOP protein levels

**Q.** What about the “viability of cells transfected with control siRNA” value (HCC-1806 cells; HCC-1806, 3d 5 μM) of the same compound?
**A.** marked reduction in the viability

**Q.** What about the “cell death in cells transfected with CHOP siRNA” value (HCC-1806 cells; HCC-1806, CHOP siRNA 20 nM, 3d 5 μM) of the same compound?
**A.** significantly attenuated the effects of compound 3d

**Q.** And the “CHOP transcription, time dependence” value (CHOP gene; HCC-1806, 10 μM, indicated times)?
**A.** increased CHOP transcription in a time-dependent fashion

**Q.** And the “CHOP mRNA levels relative to DMSO-treated cells” value (CHOP gene; HCC-1806, dose- and time-dependent studies)?
**A.** up to 9 fold

**Q.** And the “CHOP mRNA levels, dose dependence” value (CHOP gene; HCC-1806, indicated concentrations, 8 h)?
**A.** significantly increased CHOP mRNA levels in a dose-dependent manner
